#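 Briefly, cells in 96-well plates were exposed to five compound concentrations for 48 h, and endpoints were estimated by linear interpolation. TGI denotes the concentration required for complete inhibition of growth.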
# What was measured:
# Assay in all cases: NCI tumour cell line growth inhibition, 48 h
# M14 melanoma = tested on: M14 melanoma
# NCI/ADR-RES ovarian = tested on: NCI/ADR-RES ovarian
# K-562 leukemia = tested on: K-562 leukemia
# TK-10 renal = tested on: TK-10 renal
# A498 renal = tested on: A498 renal
# OVCAR-3 ovarian = tested on: OVCAR-3 ovarian
# MDA-MB-435 = tested on: MDA-MB-435
# BT-549 breast = tested on: BT-549 breast
# U251 CNS = tested on: U251 CNS
# HCC-2998 colon = tested on: HCC-2998 colon
# OVCAR-8 ovarian = tested on: OVCAR-8 ovarian
# DU-145 prostate = tested on: DU-145 prostate
# SK-MEL-28 melanoma = tested on: SK-MEL-28 melanoma
# RXF 393 renal = tested on: RXF 393 renal
# SR leukemia = tested on: SR leukemia
# ACHN renal = tested on: ACHN renal
# MOLT-4 leukemia = tested on: MOLT-4 leukemia
# SK-MEL-2 melanoma = tested on: SK-MEL-2 melanoma
# NCI-H226 lung = tested on: NCI-H226 lung
# HCT-15 colon = tested on: HCT-15 colon
# PC-3 prostate = tested on: PC-3 prostate
# SF-268 CNS = tested on: SF-268 CNS
# CCRF-CEM leukemia = tested on: CCRF-CEM leukemia
# SK-MEL-5 melanoma = tested on: SK-MEL-5 melanoma
# UACC-62 melanoma = tested on: UACC-62 melanoma
# HL-60(TB) leukemia = tested on: HL-60(TB) leukemia
# UACC-257 melanoma = tested on: UACC-257 melanoma
# NCI-H522 lung = tested on: NCI-H522 lung
# 786-0 renal = tested on: 786-0 renal
# MDA-MB-231 breast = tested on: MDA-MB-231 breast
# NCI-H460 lung = tested on: NCI-H460 lung
# SK-OV-3 ovarian = tested on: SK-OV-3 ovarian
# MDA-N = tested on: MDA-N
# SF-295 CNS = tested on: SF-295 CNS
# MCF7 breast = tested on: MCF7 breast
# IGROV1 ovarian = tested on: IGROV1 ovarian
# LOX IMVI melanoma = tested on: LOX IMVI melanoma
# HOP-62 NSCLC = tested on: HOP-62 NSCLC
# OVCAR-5 ovarian = tested on: OVCAR-5 ovarian
# HOP-92 NSCLC = tested on: HOP-92 NSCLC
# COLO 205 colon = tested on: COLO 205 colon
# OVCAR-4 ovarian = tested on: OVCAR-4 ovarian
# SN12C renal = tested on: SN12C renal
# RPMI-8226 leukemia = tested on: RPMI-8226 leukemia
# A549 NSCLC = tested on: A549 NSCLC
# SNB-19 CNS = tested on: SNB-19 CNS
# NCI-H23 lung = tested on: NCI-H23 lung
# CAKI-1 renal = tested on: CAKI-1 renal
# SF-539 CNS = tested on: SF-539 CNS
# T-47D breast = tested on: T-47D breast
# HT29 colon = tested on: HT29 colon
# KM12 colon = tested on: KM12 colon
# EKVX NSCLC = tested on: EKVX NSCLC
# HCT-116 colon = tested on: HCT-116 colon
# SNB-75 CNS = tested on: SNB-75 CNS
# SW-620 colon = tested on: SW-620 colon
# HS 578T breast = tested on: HS 578T breast
# MALME-3M melanoma = tested on: MALME-3M melanoma
# UO-31 renal = tested on: UO-31 renal
compound,measurement,setting,value
COc1ccc2nc3cccc([N+](=O)[O-])c3c(NCCC(=O)O)c2c1,TGI,M14 melanoma,> 10 µM
same,TGI,NCI/ADR-RES ovarian,> 10 µM
same,TGI,K-562 leukemia,> 10 µM
same,TGI,TK-10 renal,> 10 µM
same,TGI,A498 renal,> 10 µM
same,TGI,OVCAR-3 ovarian,> 10 µM
same,TGI,MDA-MB-435,> 10 µM
same,TGI,BT-549 breast,> 10 µM
same,TGI,U251 CNS,> 10 µM
same,TGI,HCC-2998 colon,> 10 µM
same,TGI,OVCAR-8 ovarian,> 10 µM
same,TGI,DU-145 prostate,> 10 µM
same,TGI,SK-MEL-28 melanoma,> 10 µM
same,TGI,RXF 393 renal,> 10 µM
same,TGI,SR leukemia,> 10 µM
same,TGI,ACHN renal,> 10 µM
same,TGI,MOLT-4 leukemia,> 10 µM
same,TGI,SK-MEL-2 melanoma,> 10 µM
same,TGI,NCI-H226 lung,> 10 µM
same,TGI,HCT-15 colon,> 10 µM
same,TGI,PC-3 prostate,> 10 µM
same,TGI,SF-268 CNS,> 10 µM
same,TGI,CCRF-CEM leukemia,> 10 µM
same,TGI,SK-MEL-5 melanoma,> 10 µM
same,TGI,UACC-62 melanoma,> 10 µM
same,TGI,HL-60(TB) leukemia,> 10 µM
same,TGI,UACC-257 melanoma,> 10 µM
same,TGI,NCI-H522 lung,> 10 µM
same,TGI,786-0 renal,> 10 µM
same,TGI,MDA-MB-231 breast,> 10 µM
same,TGI,NCI-H460 lung,> 10 µM
same,TGI,SK-OV-3 ovarian,> 10 µM
same,TGI,MDA-N,> 10 µM
same,TGI,SF-295 CNS,> 10 µM
same,TGI,MCF7 breast,> 10 µM
same,TGI,IGROV1 ovarian,> 10 µM
same,TGI,LOX IMVI melanoma,> 10 µM
same,TGI,HOP-62 NSCLC,> 10 µM
same,TGI,OVCAR-5 ovarian,> 10 µM
same,TGI,HOP-92 NSCLC,> 10 µM
same,TGI,COLO 205 colon,> 10 µM
same,TGI,OVCAR-4 ovarian,> 10 µM
same,TGI,SN12C renal,> 10 µM
same,TGI,RPMI-8226 leukemia,> 10 µM
same,TGI,A549 NSCLC,> 10 µM
same,TGI,SNB-19 CNS,> 10 µM
same,TGI,NCI-H23 lung,> 10 µM
same,TGI,CAKI-1 renal,> 10 µM
same,TGI,SF-539 CNS,> 10 µM
same,TGI,T-47D breast,> 10 µM
same,TGI,HT29 colon,> 10 µM
same,TGI,KM12 colon,> 10 µM
same,TGI,EKVX NSCLC,> 10 µM
same,TGI,HCT-116 colon,> 10 µM
same,TGI,SNB-75 CNS,> 10 µM
same,TGI,SW-620 colon,> 10 µM
same,TGI,HS 578T breast,> 10 µM
same,TGI,MALME-3M melanoma,> 10 µM
COc1cccc(CCn2c(N)c(-c3cc(Cl)cc(Cl)c3)c3ccc([N+](=O)[O-])cc3c2=O)c1,TGI,M14 melanoma,> 100 µM
same,TGI,NCI/ADR-RES ovarian,> 55 µM
same,TGI,K-562 leukemia,4.28 µM
same,TGI,TK-10 renal,> 100 µM
same,TGI,A498 renal,> 28.8 µM
same,TGI,OVCAR-3 ovarian,> 100 µM
same,TGI,MDA-MB-435,> 100 µM
same,TGI,BT-549 breast,> 59.5 µM
same,TGI,U251 CNS,> 49.3 µM
same,TGI,HCC-2998 colon,> 31.6 µM
same,TGI,OVCAR-8 ovarian,> 100 µM
same,TGI,DU-145 prostate,> 25.3 µM
same,TGI,SK-MEL-28 melanoma,> 100 µM
same,TGI,SR leukemia,> 64.8 µM
same,TGI,ACHN renal,22.5 µM
same,TGI,MOLT-4 leukemia,> 100 µM
same,TGI,SK-MEL-2 melanoma,> 31.4 µM
same,TGI,NCI-H226 lung,> 53.5 µM
same,TGI,HCT-15 colon,> 44.5 µM
same,TGI,PC-3 prostate,> 61.9 µM
same,TGI,UO-31 renal,25.5 µM
same,TGI,SF-268 CNS,> 100 µM
same,TGI,SK-MEL-5 melanoma,9.07 µM
same,TGI,UACC-62 melanoma,> 100 µM
same,TGI,HL-60(TB) leukemia,5.37 µM
same,TGI,UACC-257 melanoma,24.4 µM
same,TGI,NCI-H522 lung,> 26.6 µM
same,TGI,786-0 renal,> 100 µM
same,TGI,MDA-MB-231 breast,61.1 µM
same,TGI,NCI-H460 lung,> 30.8 µM
same,TGI,SK-OV-3 ovarian,> 100 µM
same,TGI,MDA-N,> 100 µM
same,TGI,SF-295 CNS,> 100 µM
same,TGI,MCF7 breast,89.2 µM
same,TGI,IGROV1 ovarian,22.7 µM
same,TGI,LOX IMVI melanoma,> 56.1 µM
same,TGI,HOP-62 NSCLC,> 100 µM
same,TGI,OVCAR-5 ovarian,> 100 µM
same,TGI,HOP-92 NSCLC,7.93 µM
same,TGI,COLO 205 colon,4.05 µM
same,TGI,OVCAR-4 ovarian,> 100 µM
same,TGI,SN12C renal,> 86.7 µM
same,TGI,RPMI-8226 leukemia,3.02 µM
same,TGI,A549 NSCLC,> 100 µM
same,TGI,SNB-19 CNS,> 44 µM
same,TGI,NCI-H23 lung,5.99 µM
same,TGI,CAKI-1 renal,41.7 µM
same,TGI,SF-539 CNS,> 100 µM
same,TGI,T-47D breast,> 24.8 µM
same,TGI,HT29 colon,> 100 µM
same,TGI,KM12 colon,> 100 µM
same,TGI,EKVX NSCLC,> 100 µM
same,TGI,HCT-116 colon,12.7 µM
same,TGI,SNB-75 CNS,> 100 µM
same,TGI,SW-620 colon,> 100 µM
same,TGI,HS 578T breast,> 38 µM
same,TGI,MALME-3M melanoma,32.6 µM
COc1ccc(C[C@H]2COC(=O)[C@@H]2Cc2ccc(Br)cc2)cc1OC,TGI,M14 melanoma,> 89.5 µM
same,TGI,NCI/ADR-RES ovarian,> 100 µM
same,TGI,K-562 leukemia,> 72 µM
same,TGI,TK-10 renal,> 94.2 µM
same,TGI,OVCAR-3 ovarian,> 100 µM
same,TGI,MDA-MB-435,55.7 µM
same,TGI,BT-549 breast,84.2 µM
same,TGI,U251 CNS,> 100 µM
same,TGI,HCC-2998 colon,> 100 µM
same,TGI,OVCAR-8 ovarian,> 100 µM
same,TGI,DU-145 prostate,> 84.3 µM
same,TGI,SK-MEL-28 melanoma,> 100 µM
same,TGI,RXF 393 renal,> 62.8 µM
same,TGI,SR leukemia,> 94 µM
same,TGI,ACHN renal,> 100 µM
same,TGI,MOLT-4 leukemia,61.8 µM
same,TGI,SK-MEL-2 melanoma,51.8 µM
same,TGI,NCI-H226 lung,> 85.4 µM
same,TGI,HCT-15 colon,> 100 µM
same,TGI,PC-3 prostate,52.1 µM
same,TGI,UO-31 renal,24.2 µM
same,TGI,SF-268 CNS,> 31.6 µM
same,TGI,CCRF-CEM leukemia,> 100 µM
same,TGI,SK-MEL-5 melanoma,17.2 µM
same,TGI,UACC-62 melanoma,96.8 µM
same,TGI,HL-60(TB) leukemia,> 61.6 µM
same,TGI,UACC-257 melanoma,74.6 µM
same,TGI,NCI-H522 lung,> 71.1 µM
same,TGI,786-0 renal,> 100 µM
same,TGI,MDA-MB-231 breast,77.2 µM
same,TGI,NCI-H460 lung,> 100 µM
same,TGI,SK-OV-3 ovarian,> 100 µM
same,TGI,MDA-N,> 100 µM
same,TGI,SF-295 CNS,> 74.3 µM
same,TGI,MCF7 breast,> 65.4 µM
same,TGI,IGROV1 ovarian,> 92.4 µM
same,TGI,LOX IMVI melanoma,37.8 µM
same,TGI,HOP-62 NSCLC,> 100 µM
same,TGI,OVCAR-5 ovarian,> 100 µM
same,TGI,HOP-92 NSCLC,79.5 µM
same,TGI,COLO 205 colon,39.5 µM
same,TGI,OVCAR-4 ovarian,> 100 µM
same,TGI,SN12C renal,> 100 µM
same,TGI,RPMI-8226 leukemia,> 100 µM
same,TGI,A549 NSCLC,> 100 µM
same,TGI,SNB-19 CNS,> 61.8 µM
same,TGI,NCI-H23 lung,> 100 µM
same,TGI,CAKI-1 renal,> 84 µM
same,TGI,SF-539 CNS,> 100 µM
same,TGI,T-47D breast,> 100 µM
same,TGI,HT29 colon,> 100 µM
same,TGI,KM12 colon,> 75.2 µM
same,TGI,EKVX NSCLC,56.5 µM
same,TGI,HCT-116 colon,> 89.7 µM
same,TGI,SNB-75 CNS,85.1 µM
same,TGI,SW-620 colon,> 100 µM
same,TGI,HS 578T breast,> 90.9 µM
same,TGI,MALME-3M melanoma,> 89.5 µM

# — PubChem BioAssay (NCI)
